One experiment has as its target SGLT1 (Homo sapiens (Human), UniProt P13866). In words: SGLT1 activity measurement: [14C] methyl α-D-glucopyranoside uptake in SGLT1 instantaneous transfer strain. The class given is cell-based. To be noted: SGLT1 transfected cells, 96-well plate, 15 min preincubation, 2 hours with [14C] methyl α-D-glucopyranoside at 37° C.
The target in another experiment is SGLT2 (Homo sapiens (Human), UniProt P31639). Description: SGLT2 activity measurement: [14C] methyl α-D-glucopyranoside uptake in SGLT2 instantaneous transfer strain. The class given is cell-based. To be noted: SGLT2 transfected cells, 96-well plate, 15 min preincubation, 2 hours with [14C] methyl α-D-glucopyranoside at 37° C.
In the next experiment the test system is glucose-load mice. In words: Preliminary evaluation of the hypoglycemic effect in glucose-load mice. To be noted: ICR mice, dose 1 mg/kg, 20% glucose solution 4 g/kg given 15 minutes after administering, blood glucose at minute 0, 15, 30, 45, 60, 120. The class given is in vivo. The procedure:
The purpose was to observe the effect of the test compounds on blood glucose levels of glucose-load mice. Determination and analysis of sugar content in the blood collected from the mouse tail was determined at different times within 2 hours of administration to provide preliminary evaluation of the hypoglycemic activity in vivo.
The experimental animals used were 24 healthy ICR mice (weighing 20-24 g), 12 female and 12 male, purchased from Shanghai Super—B&K laboratory animal Corp. Ltd., animal production license number: SCXK (Shanghai) 2008-0016.
To prepare the drug, a certain amount of compounds were weighed and dissolved in water (pure water OWN) and formulated into an aqueous solution of 0.1 mg/mL (5% DMSO for solubilization).
The administered dose was 1 mg/kg, blank and water groups (containing 5% DMSO).
20% glucose solution (4 g/kg, 0.8 mL each mouse) was given after 15 minutes of administration.
Administering in dose and measuring the blood glucose value (−15 minutes).

SMILES strings stand for the structures. Where only a bound is given, the exact number is not on record here.

SGLT2, sequence (P31639 whole entry, species assumed): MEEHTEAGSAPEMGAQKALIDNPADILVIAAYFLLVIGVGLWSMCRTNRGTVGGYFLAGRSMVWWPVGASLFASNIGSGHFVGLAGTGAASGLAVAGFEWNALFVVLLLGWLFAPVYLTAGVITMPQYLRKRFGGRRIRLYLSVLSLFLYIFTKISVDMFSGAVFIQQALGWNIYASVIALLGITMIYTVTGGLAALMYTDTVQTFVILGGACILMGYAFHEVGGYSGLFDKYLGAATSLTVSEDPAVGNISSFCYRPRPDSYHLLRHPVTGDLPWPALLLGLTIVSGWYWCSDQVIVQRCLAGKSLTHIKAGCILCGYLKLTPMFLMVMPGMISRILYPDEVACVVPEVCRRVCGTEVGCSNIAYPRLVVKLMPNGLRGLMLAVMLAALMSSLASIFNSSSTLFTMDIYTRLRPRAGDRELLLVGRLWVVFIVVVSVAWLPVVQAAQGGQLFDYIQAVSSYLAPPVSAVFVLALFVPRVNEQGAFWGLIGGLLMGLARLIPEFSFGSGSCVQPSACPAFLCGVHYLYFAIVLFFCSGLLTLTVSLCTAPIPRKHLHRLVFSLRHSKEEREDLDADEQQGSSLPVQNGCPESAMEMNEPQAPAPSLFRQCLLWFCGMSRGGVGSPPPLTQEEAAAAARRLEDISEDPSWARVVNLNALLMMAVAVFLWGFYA
SGLT1, sequence (P13866 whole entry, species assumed): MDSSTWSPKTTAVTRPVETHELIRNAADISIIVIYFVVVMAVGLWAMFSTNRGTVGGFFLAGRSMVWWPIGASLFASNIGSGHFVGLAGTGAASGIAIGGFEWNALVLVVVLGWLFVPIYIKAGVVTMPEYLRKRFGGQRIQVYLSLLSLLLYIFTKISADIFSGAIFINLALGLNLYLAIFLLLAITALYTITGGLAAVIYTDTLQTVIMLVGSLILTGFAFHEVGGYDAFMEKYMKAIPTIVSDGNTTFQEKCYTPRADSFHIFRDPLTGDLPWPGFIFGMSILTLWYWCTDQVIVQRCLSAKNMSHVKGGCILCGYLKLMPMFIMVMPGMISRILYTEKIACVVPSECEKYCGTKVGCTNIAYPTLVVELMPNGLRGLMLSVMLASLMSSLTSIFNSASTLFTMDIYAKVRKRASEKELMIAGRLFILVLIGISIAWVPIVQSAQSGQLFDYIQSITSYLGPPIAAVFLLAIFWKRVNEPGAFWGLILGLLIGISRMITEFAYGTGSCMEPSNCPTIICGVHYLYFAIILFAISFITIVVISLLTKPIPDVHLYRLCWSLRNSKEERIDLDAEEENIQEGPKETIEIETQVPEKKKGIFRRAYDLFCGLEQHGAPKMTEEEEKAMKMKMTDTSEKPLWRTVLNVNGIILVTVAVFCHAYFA
Procedure for SGLT1: (§1) Then each well of the 96-well plate was washed with 200 μL sodium-free buffer twice and 90 μL sodium-containing buffer solution containing test compounds having different concentrations was added, each of the test compounds having its corresponding concentration repeated in three wells. The compounds were incubated at 37° C. for 15 minutes and then each well of the 96-well plate was incubated with [14C] Methyl α-D-glucopyranoside (10 μL, totally 0.1 μCi) for another 2 hours at 37° C. Thereafter, supernatant was removed; the cell pellet was washed twice with precooling no-sodium buffer and lysed in 200 mM NaOH (100 μL). 100 μL scintillation fluid was added and mixed and 14C was quantitatively detected using liquid scintillation.
(§2) The IC50 values of the compounds can be calculated using the aggregation rate at different concentrations.
Procedure for SGLT2: as §1, §2

Consider `[2H]C([2H])([2H])C([2H])([2H])Oc1ccc(Cc2cc(C34OCC(CO)(O3)[C@@H](O)[C@H](O)[C@H]4O)ccc2Cl)cc1F` (stereo in doubt) [Example 10, (1S,2S,3S,4R,5S)-5-[4-chloro-3-[[3-fluoro-4-(1,1,2,2,2-pentadeuterioethoxy)phenyl]methyl]phenyl]-1-(hydroxymethyl)-6,8-dioxabicyclo[3.2.1]octane-2,3,4-triol], for which the IC50 – broadly, the point on the concentration scale where inhibition reaches its midpoint – against SGLT1 was 1220 nM; at SGLT2 it was 3.31 nM.
For the compound `CCOc1ccc(Cc2cc(C34OCC(CO)(O3)[C@@H](O)[C@H](O)[C@H]4O)ccc2Cl)cc1F` (stereo in doubt) [Example 4, (1S,2S,3S,4R,5S)-5-[4-chloro-3-[(4-ethoxy-3-fluoro-phenyl)methyl]phenyl]-1-(hydroxymethyl)-6,8-dioxabicyclo[3.2.1]octane-2,3,4-triol], in the experiment on glucose-load mice, the “AUC decline rate %” value is reported as 15.88%.
Consider `CCOc1ccc(Cc2cc(C34OCC(CO)(O3)C(O)C(O)C4O)ccc2Cl)cc1F` (single isomer, unassigned) [Example 4], for which, on SGLT2, the 50% inhibitory concentration (IC50) was 6.92 nM.
With `[2H]C([2H])(c1ccc(OCC)c(F)c1)c1cc(C23OCC(CO)(O2)[C@@H](O)[C@H](O)[C@H]3O)ccc1Cl` (stereo in doubt) [Example 11, (1S,2S,3S,4R,5S)-5-[4-chloro-3-[dideuterio-(4-ethoxy-3-fluoro-phenyl)methyl]phenyl]-1-(hydroxymethyl)-6,8-dioxabicyclo[3.2.1]octane-2,3,4-triol], the figures for the concentration for half-maximal inhibition (IC50) on SGLT1 and against SGLT2 were 3550 nM and 6.35 nM, respectively.
As to `OCC12COC(c3ccc(Cl)c(Cc4ccc(OCC(F)(F)F)cc4)c3)(O1)[C@H](O)[C@@H](O)[C@@H]2O` (stereo in doubt) [Example 7, (1S,2S,3S,4R,5S)-5-[4-chloro-3-[[4-(2,2,2-trifluoroethoxy)phenyl]methyl]phenyl]-1-(hydroxymethyl)-6,8-dioxabicyclo[3.2.1]octane-2,3,4-triol], the “AUC decline rate %” value in the experiment on glucose-load mice turned out to be 10.75%.
Turning to `Cc1ccc(C23OCC(CO)(O2)C(O)C(O)C3O)cc1Cc1ccc(-c2ccc(F)cc2)s1` (single isomer, unassigned) [Example 9], the 50% inhibitory concentration (IC50) turned out to be 1260 nM against SGLT1 and 9.28 nM against SGLT2.
In the case of `COc1ccc(Cc2cc(C34OCC(CO)(O3)[C@@H](O)[C@H](O)[C@H]4O)ccc2Cl)c(F)c1F` (stereo in doubt) [Example 2, (1S,2S,3S,4R,5S)-5-[4-chloro-3-[(2,3-difluoro-4-methoxy-phenyl)methyl]phenyl]-1-(hydroxymethyl)-6,8-dioxabicyclo[3.2.1]octane-2,3,4-triol], the IC50 is above 2000 nM against SGLT1 and 3.65 nM against SGLT2. For the same compound, the “AUC decline rate %” value with glucose-load mice came to 12.95%.
In the same order, the values of `[2H]C([2H])([2H])Oc1ccc(Cc2cc(C34OCC(CO)(O3)[C@@H](O)[C@H](O)[C@H]4O)ccc2Cl)cc1F` (stereo in doubt) [Example 8, (1S,2S,3S,4R,5S)-5-[4-chloro-3-[[3-fluoro-4-(trideuteriomethoxy)phenyl]methyl]phenyl]-1-(hydroxymethyl)-6,8-dioxabicyclo[3.2.1]octane-2,3,4-triol] are 600 nM, 1.42 nM and 20.49%.
In the case of `OCC12COC(c3ccc(Cl)c(Cc4ccc5c(c4)CCO5)c3)(O1)C(O)C(O)C2O` (single isomer, unassigned) [Example 5], the IC50 against SGLT1 turned out to be 2520 nM. That is a single-digit micromolar value.
Take `CCOc1ccc(Cc2cc(C34OCC(CO)(O3)C(O)C(O)C4O)ccc2Cl)c(F)c1F` (single isomer, unassigned) [Example 3]: on SGLT2, half-maximal inhibition (IC50) was put at 8.08 nM.
Turning to `OCC12COC(c3ccc(Cl)c(Cc4ccc(OCC(F)(F)F)cc4)c3)(O1)C(O)C(O)C2O` (single isomer, unassigned) [Example 7], the values for the IC50 against SGLT1 and at SGLT2 were 14300 nM and 4.58 nM, respectively.
For the compound `OCC12COC(c3ccc(Cl)c(Cc4ccc(OC(F)(F)F)cc4)c3)(O1)[C@H](O)[C@@H](O)[C@@H]2O` (stereo in doubt) [Example 6, (1S,2S,3S,4R,5S)-5-[4-chloro-3-[[4-(trifluoromethoxy)phenyl]methyl]phenyl]-1-(hydroxymethyl)-6,8-dioxabicyclo[3.2.1]octane-2,3,4-triol], in the experiment on glucose-load mice, the “AUC decline rate %” value is 10.15%.
In the case of `OCC12COC(c3ccc(Cl)c(Cc4ccc(OCCOC5CC5)cc4)c3)(O1)[C@H](O)[C@@H](O)[C@@H]2O` (stereo in doubt) [Example 1, (1S,2S,3S,4R,5S)-5-[4-chloro-3-[[4-[2-(cyclopropoxy)ethoxy]phenyl]methyl]phenyl]-1-(hydroxymethyl)-6,8-dioxabicyclo[3.2.1]octane-2,3,4-triol], the figures for the IC50 at SGLT1 and on SGLT2 were above 2000 nM and 9.53 nM, respectively. The “AUC decline rate %” value in the experiment with glucose-load mice was 10.04%.
As to `OCC12COC(c3ccc(Cl)c(Cc4ccc5c(c4)CCO5)c3)(O1)[C@H](O)[C@@H](O)[C@@H]2O` (stereo in doubt) [Example 5, (1S,2S,3S,4R,5S)-5-[4-chloro-3-(2,3-dihydrobenzofuran-5-ylmethyl)phenyl]-1-(hydroxymethyl)-6,8-dioxabicyclo[3.2.1]octane-2,3,4-triol], the “AUC decline rate %” value with glucose-load mice is reported as 14.13%.

The values above are taken from US8609622B2, “C-aryl glucoside derivatives, preparation process and pharmaceutical use thereof” (Shanghai Hengrui Pharmaceutical Co., Ltd., priority 2010, dated 2013).
